Measured values as given in ChEMBL document CHEMBL1138723, “Design of bivalent ligands using hydrogen bond linkers: synthesis and evaluation of inhibitors for human beta-tryptase” (Bioorg Med Chem Lett, 2004).

Legend:
Tryptase beta-1 = Tryptase beta-1 (Homo sapiens, UniProt Q15661); test: Inhibitory activity against human mast cell tryptase beta
[1] = target: Voltage-gated inwardly rectifying potassium channel KCNH2 (Homo sapiens, UniProt Q12809); test: Inhibitory activity against human Potassium channel HERG
Chain of Voltage-gated inwardly rectifying potassium channel KCNH2 (Q12809 whole entry): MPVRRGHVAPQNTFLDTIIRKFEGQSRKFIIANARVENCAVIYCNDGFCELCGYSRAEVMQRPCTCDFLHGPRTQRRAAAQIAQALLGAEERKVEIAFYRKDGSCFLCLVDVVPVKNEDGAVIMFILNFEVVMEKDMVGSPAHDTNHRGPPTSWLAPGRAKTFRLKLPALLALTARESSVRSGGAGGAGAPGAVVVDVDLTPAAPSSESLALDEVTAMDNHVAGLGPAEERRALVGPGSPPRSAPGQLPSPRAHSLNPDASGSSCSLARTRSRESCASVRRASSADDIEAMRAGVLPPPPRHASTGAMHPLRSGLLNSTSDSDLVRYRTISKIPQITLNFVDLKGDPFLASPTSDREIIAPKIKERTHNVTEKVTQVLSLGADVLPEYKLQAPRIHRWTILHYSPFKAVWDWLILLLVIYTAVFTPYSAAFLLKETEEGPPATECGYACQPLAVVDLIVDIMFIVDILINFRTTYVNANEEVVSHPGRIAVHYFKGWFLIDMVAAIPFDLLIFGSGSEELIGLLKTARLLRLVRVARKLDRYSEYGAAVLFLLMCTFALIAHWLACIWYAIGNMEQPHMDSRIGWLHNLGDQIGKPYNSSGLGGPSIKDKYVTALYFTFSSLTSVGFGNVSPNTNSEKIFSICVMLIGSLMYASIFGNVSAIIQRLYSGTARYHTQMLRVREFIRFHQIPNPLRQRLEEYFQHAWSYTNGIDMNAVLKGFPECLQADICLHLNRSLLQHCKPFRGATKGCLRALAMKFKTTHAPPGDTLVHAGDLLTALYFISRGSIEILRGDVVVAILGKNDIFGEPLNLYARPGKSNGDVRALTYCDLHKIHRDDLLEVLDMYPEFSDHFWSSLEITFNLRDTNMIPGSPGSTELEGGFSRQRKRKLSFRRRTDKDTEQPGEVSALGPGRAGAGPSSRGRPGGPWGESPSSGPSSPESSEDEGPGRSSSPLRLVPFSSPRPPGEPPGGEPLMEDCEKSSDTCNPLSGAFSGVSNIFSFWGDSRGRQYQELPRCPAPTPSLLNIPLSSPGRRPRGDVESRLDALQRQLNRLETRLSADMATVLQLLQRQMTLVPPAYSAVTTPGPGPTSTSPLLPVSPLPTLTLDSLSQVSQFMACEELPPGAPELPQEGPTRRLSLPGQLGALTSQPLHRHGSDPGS

Cytochrome P450 2C9 = Cytochrome P450 2C9 (Homo sapiens, UniProt P11712); test: Inhibitory activity against cytochrome P450 determined using human liver microsome upon 15 min incubation with probes substrates Tolbutamide (2C9); assay type: ADME, microsomes
Chain of Cytochrome P450 2C9 (P11712 whole entry): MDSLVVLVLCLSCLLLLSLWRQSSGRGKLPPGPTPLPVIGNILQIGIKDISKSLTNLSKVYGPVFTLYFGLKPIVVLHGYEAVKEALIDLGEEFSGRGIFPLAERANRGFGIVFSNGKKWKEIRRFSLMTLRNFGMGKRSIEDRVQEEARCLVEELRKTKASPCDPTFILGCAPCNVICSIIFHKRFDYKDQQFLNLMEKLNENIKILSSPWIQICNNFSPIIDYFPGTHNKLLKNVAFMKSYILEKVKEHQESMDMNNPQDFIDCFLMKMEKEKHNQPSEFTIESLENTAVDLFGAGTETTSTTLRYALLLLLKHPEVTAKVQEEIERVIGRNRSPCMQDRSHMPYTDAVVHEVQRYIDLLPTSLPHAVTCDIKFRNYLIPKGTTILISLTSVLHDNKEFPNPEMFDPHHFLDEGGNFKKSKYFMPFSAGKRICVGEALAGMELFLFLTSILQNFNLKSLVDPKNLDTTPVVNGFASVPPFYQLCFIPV

Cytochrome P450 2C19 = Cytochrome P450 2C19 (Homo sapiens, UniProt P33261); test: Inhibitory activity against cytochrome P450 determined using human liver microsome upon 15 min incubation with probes substrates s-mephenytoin (2C19); assay type: ADME, microsomes
Chain of Cytochrome P450 2C19 (P33261 whole entry): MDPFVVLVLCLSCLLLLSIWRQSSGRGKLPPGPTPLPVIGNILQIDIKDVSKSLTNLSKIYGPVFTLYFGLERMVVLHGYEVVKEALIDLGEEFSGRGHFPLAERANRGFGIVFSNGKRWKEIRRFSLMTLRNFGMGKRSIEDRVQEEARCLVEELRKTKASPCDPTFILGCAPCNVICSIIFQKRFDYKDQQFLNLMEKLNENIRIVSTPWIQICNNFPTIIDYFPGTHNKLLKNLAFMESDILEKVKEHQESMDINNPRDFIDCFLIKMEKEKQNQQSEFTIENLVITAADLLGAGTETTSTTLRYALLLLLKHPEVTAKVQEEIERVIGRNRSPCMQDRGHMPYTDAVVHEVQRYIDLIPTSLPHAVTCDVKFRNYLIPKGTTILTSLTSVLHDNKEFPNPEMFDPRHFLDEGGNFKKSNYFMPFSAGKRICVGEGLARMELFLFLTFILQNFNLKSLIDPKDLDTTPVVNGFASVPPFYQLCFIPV

Chain of Tryptase beta-1 (Q15661 whole entry): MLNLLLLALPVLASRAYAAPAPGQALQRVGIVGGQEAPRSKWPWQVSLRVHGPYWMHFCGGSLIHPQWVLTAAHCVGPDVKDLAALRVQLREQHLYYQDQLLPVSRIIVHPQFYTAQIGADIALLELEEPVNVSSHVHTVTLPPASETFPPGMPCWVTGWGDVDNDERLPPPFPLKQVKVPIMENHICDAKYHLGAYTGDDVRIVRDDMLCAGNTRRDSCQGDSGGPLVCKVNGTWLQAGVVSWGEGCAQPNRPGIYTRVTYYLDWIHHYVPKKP

Compound	Ki (Tryptase beta-1)	IC50 [1]	IC50 (Cytochrome P450 2C9)	IC50 (Cytochrome P450 2C19)
CCOC(=O)c1cc(C(=O)N2CCC(c3cc(CN)ccc3F)CC2)cc(-c2nc(-c3cccs3)no2)c1	59 nM			
NCc1ccc(F)c(C2CCN(C(=O)c3cccc(-c4nc(-c5cccs5)no4)c3)CC2)c1	4.3 nM	800 nM	480 nM	2190 nM
NCc1ccc(F)c(C2CCN(C(=O)c3cc(C(=O)O)cc(-c4nc(-c5cccs5)no4)c3)CC2)c1	88 nM	76800 nM	> 50000 nM	> 50000 nM
NCc1cccc(C2CCN(C(=O)c3cc(C(N)=O)cc(-c4nc(-c5cccs5)no4)c3)CC2)c1	1.5 nM			
NCc1ccc(F)c(C2CCN(C(=O)c3cc(C(N)=O)cc(-c4nc(-c5cccs5)no4)c3)CC2)c1	1.3 nM			
